Experimental findings from US20180179210A1, “Inhibitors of the TEC Kinase Enzyme Family” (Pharmascience Inc., priority 2015, published 2018) are described below.

One may read the IC50 as the concentration needed to halve the response being measured. A higher IC50 goes with weaker potency.

The target in one test is T1, human BTK kinase (hBTK) (Homo sapiens, UniProt Q06187).
T1 construct: purchased Eurofins Pharma Discovery Services UK Limited (contract assay, Kinase Profiler)
The experiment in a line: BTK kinase inhibition assay (Kinase Profiler radiometric protein kinase assay, Eurofins). To be noted: radiometric [γ-33P-ATP] assay, 40 minutes at room temperature, 250 μM substrate. Type of test: biochemical. As to the method: In vitro potency of selected compound was defined against human BTK kinase (hBTK) using Kinase Profiler radiometric protein kinase assays performed at Eurofins Pharma Discovery Services UK Limited.
hBTK kinase is diluted in buffer and all compounds were prepared to 50× final assay concentration in 100% DMSO. This working stock of the compound was added to the assay well as the first component in the reaction, followed by the remaining components as detailed in the assay protocol listed above. The reaction was initiated by the addition of the MgATP mix. The kinase reaction was performed at room temperature for 40 minutes in presence of 250 μM substrate, 10 mM MgAcetate, [γ-33P-ATP] (specific activity approx. 500 cpm/pmol, concentration as required) and variable test article concentrations. The ATP concentrations in the assays were with 15 μM of the apparent. The reaction was stopped by the addition of 3% phosphoric acid solution. 10 μL of the reaction is then spotted onto a P30 filtermat and washed three times for 5 minutes in 75 mM phosphoric acid and once in methanol prior to drying and scintillation counting. In addition positive control wells contain all components of the reaction, except the compound of interest; however, DMSO (at a final concentration of 2%) were included in these wells to control for solvent effects as well as blank wells contain all components of the reaction, with a reference inhibitor replacing the compound of interest. This abolishes kinase activity and establishes the base-line (0% kinase activity remaining).

The subject of test [1] is TMD-8 human activated B cell diffuse large B cell lymphoma cells. Briefly: TMD-8 survival assay. Type of test: cell-based. To be noted: TMD8, TMD-8 cells, 72 h treatment, Cell Titer-Glo. As to the method: BTK inhibitors affect the survival of B-cell lymphomas. TMD-8 human activated B cell diffuse large B cell lymphoma cells were seeded in 96-well plates at a density of 20,000 cells/well in HyClone RPMI supplemented with 10% FBS (Fisher)/1% Penicillin/Streptomycin (HyClone) and incubated at 37° C., 5% CO2. Cells were treated in triplicate with 1,000 nM or 100 nM curves of compounds for 72 h. Cell survival was measured by Cell Titer-Glo Luminescent Assay (Promega). EC50 values (50% proliferation in the presence of compound as compared to vehicle treated controls) were calculated from dose response compound curves using GraphPad Prism Software.
(In general: Cellular ATP, detected with luciferase, serves as a proxy for viable cell number.)

A further test has as its system Splenocytes. The experiment in a line: Splenic cell proliferation assay (anti-IgM stimulated). It is filed as cell-based. Particulars: Splenocyte; CD1 mouse splenocytes, 1 h pre-treatment, 2.5 ug/ml anti-IgM F(ab')2 for 72 h, Cell Titer-Glo; read-out: EC50 (inhibition of splenic cell proliferation). As to the method: Proliferation of splenocytes in response to anti-IgM can be blocked by inhibition of Btk.
Splenocytes were obtained from 6 week old male CD1 mice (Charles River Laboratories Inc.). Mouse spleens were manually disrupted in PBS and filtered using a 70 um cell strainer followed by ammonium chloride red blood cell lysis. Cells were washed, resuspended in Splenocyte Medium (HyClone RPMI supplemented with 10% heat-inactivated FBS, 0.5× non-essential amino acids, 10 mM HEPES, 50 uM beta mercaptoethanol) and incubated at 37° C., 5% CO2 for 2 h to remove adherent cells. Suspension cells were seeded in 96 well plates at 50,000 cells per well and incubated at 37° C., 5% CO2 for 1 h. Splenocytes were pre-treated in triplicate with 10,000 nM curves of Formula 1 compounds for 1 h, followed by stimulation of cell proliferation with 2.5 ug/ml anti-IgM F(ab′)2 (Jackson ImmunoResearch) for 72 h. Cell proliferation was measured by Cell Titer-Glo Luminescent Assay (Promega). EC50 values (50% proliferation in the presence of compound as compared to vehicle treated controls) were calculated from dose response compound curves using GraphPad Prism Software EC50 values are reported in Table 3: […]

A further test concerns the target BTK (Homo sapiens, UniProt Q06187). Briefly: BTK enzyme off-rate determination (dilution kinetic experiments). It is filed as biochemical. To be noted: 10-30 nM compound pre-incubated with 7 nM enzyme, 1000 uM ATP, 1 h, diluted 250×, monitored 8 h. As to the method: 10-30 nM compound was pre-incubated with 7 nM enzyme in the presence of 1000 uM ATP for 1 h. The [I]-[E] complex was diluted 250× into an assay buffer with 1000 uM ATP and 2uM substrate peptide. Enzyme activity in the diluted samples was monitored in real time assay over period of 8 h. The progress curves were fit with time dependent equation to determine apparent Kobs and residence time of the compound. […] Consistent with covalent inhibition of BTK.

A value given as a limit tells only on which side of the number the result lay.

T1 sequence (Q06187 whole entry): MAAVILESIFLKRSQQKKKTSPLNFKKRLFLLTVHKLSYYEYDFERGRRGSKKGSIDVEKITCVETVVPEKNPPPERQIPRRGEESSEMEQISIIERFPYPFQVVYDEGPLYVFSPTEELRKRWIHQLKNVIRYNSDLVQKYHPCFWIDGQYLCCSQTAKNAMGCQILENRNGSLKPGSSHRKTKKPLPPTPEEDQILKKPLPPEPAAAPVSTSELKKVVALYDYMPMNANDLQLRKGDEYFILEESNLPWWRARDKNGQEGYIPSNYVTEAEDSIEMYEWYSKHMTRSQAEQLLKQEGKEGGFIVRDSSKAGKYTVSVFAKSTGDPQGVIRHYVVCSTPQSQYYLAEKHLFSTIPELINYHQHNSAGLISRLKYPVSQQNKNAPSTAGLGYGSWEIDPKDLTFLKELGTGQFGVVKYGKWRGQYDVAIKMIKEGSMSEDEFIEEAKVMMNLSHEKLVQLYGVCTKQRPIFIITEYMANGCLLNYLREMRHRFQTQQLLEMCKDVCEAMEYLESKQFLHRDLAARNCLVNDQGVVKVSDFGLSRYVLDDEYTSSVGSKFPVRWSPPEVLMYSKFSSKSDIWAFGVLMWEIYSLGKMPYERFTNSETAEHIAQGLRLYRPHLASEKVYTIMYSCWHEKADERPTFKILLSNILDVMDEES
Chain of BTK (Q06187 whole entry): as above

For the compound `CC#CC(=O)N(C)[C@H]1C[C@@H](n2nc(-c3ccc(Oc4cc(F)cc(OCc5cnc(C)nc5)c4)cc3)c3c(N)ncnc32)C1` [Compound 32], half-maximal inhibition against human BTK kinase (hBTK) (IC50) was put at 8 nM. Moreover, the EC50 in test [1] stood at 8.5 nM; with Splenocytes it was 1.5 nM.
In turn, `C=C(F)C(=O)N1CCC[C@@H]1Cn1nc(-c2ccc(Oc3cc(F)cc(OCc4cnc(C)nc4)c3)cc2)c2c(N)ncnc21` [Compound 6] yielded an IC50 against human BTK kinase (hBTK) of 55 nM. The figures for the EC50 (in test [1]; with Splenocytes) were 36.1 nM and 11.5 nM, respectively.
For the compound `CC#CC(=O)N1CCC(n2nc(-c3ccc(Oc4cc(F)cc(OCc5cnc(C)nc5)c4)cc3)c3c(N)ncnc32)CC1` [Compound 26], the IC50 at human BTK kinase (hBTK) came to 24 nM. Besides, the values for the EC50 (in test [1]; with Splenocytes) were 18.1 nM and 4.6 nM, respectively.
Turning to `CC#CC(=O)N[C@H]1CC[C@@H](n2nc(-c3ccc(Oc4cc(F)cc(OCc5cnc(C)nc5)c4)cc3)c3c(N)ncnc32)CC1` [Compound 30], the IC50 against human BTK kinase (hBTK) came out at 9 nM. In addition, the results for the EC50 (in test [1]; with Splenocytes) were 5.1 nM and 1 nM, respectively.
On the same counts, the results for `C=C(C)C(=O)N1CCC[C@@H](n2nc(-c3ccc(Oc4cc(F)cc(OCc5cnc(C)nc5)c4)cc3)c3c(N)ncnc32)C1` [Compound 7] are 16 nM, greater than 100 nM and 48.7 nM.
Consider `C=CS(=O)(=O)N1CC[C@@H](n2nc(-c3ccc(Oc4cc(F)cc(OCc5cnc(C)nc5)c4)cc3)c3c(N)ncnc32)C1` [Compound 19], for which, at human BTK kinase (hBTK), the IC50 worked out at 7 nM. Besides, the EC50 in test [1] was 53.3 nM; in the test on Splenocytes it was 13.4 nM.
In the case of `C#CC(=O)N1CCC[C@@H](n2nc(-c3ccc(Oc4cc(F)cc(OCc5cnc(C)nc5)c4)cc3)c3c(N)ncnc32)C1` [Compound 10], the IC50 on human BTK kinase (hBTK) amounted to 8 nM. The figures for the EC50 (in test [1]; with Splenocytes) were 75.5 nM and 9.8 nM, respectively.
For the compound `C=CC(=O)N1CC(Cn2nc(-c3ccc(Oc4cc(F)cc(OCc5cnc(C)nc5)c4)cc3)c3c(N)ncnc32)C1` [Compound 23], inhibition against human BTK kinase (hBTK) was half-maximal at 9 nM (IC50). The results for the EC50 (in test [1]; in the test on Splenocytes) were 13.9 nM and 4.9 nM, respectively.
For the compound `Cc1ncc(COc2cc(F)cc(Oc3ccc(-c4nn(C[C@H]5CCCN5C(=O)/C=C/CN(C)C)c5ncnc(N)c45)cc3)c2)cn1` [Compound 9], the IC50 against human BTK kinase (hBTK) was determined as 40 nM. Further, the EC50 in test [1] was 18.7 nM; in the test on Splenocytes, 6.4 nM.
Take `CC#CC(=O)N[C@H]1C[C@@H](n2nc(-c3ccc(Oc4cc(F)cc(OCc5cnc(C)nc5)c4)cc3)c3c(N)ncnc32)C1` [Compound 28]: at human BTK kinase (hBTK), inhibition was half-maximal at 13 nM (IC50). In addition, the values for the EC50 (in test [1]; with Splenocytes) were 8.4 nM and 1.1 nM, respectively.
On human BTK kinase (hBTK), `Cc1ncc(COc2cc(F)cc(Oc3ccc(-c4nn(C[C@H]5CCCN5C(=O)C5=CCC5)c5ncnc(N)c45)cc3)c2)cn1` [Compound 15] registered an IC50 of 53 nM. Moreover, the EC50 in test [1] was determined as 56.1 nM; with Splenocytes it was 8.7 nM.
For `CC#CC(=O)N1CCC[C@@H]1Cn1nc(-c2ccc(Oc3cc(F)cc(OCc4cnc(C)nc4)c3)cc2)c2c(N)ncnc21` [Compound 5] the same measures were 126 nM, 48.8 nM and 7.8 nM.
Regarding `C=CC(=O)N1CCC[C@@H](n2nc(-c3ccc(Oc4cc(F)cc(OCc5cnc(C)nc5)c4)cc3)c3c(N)ncnc32)C1` [Compound 12], half-maximal inhibition against human BTK kinase (hBTK) (IC50) was put at 6 nM. Moreover, the EC50 in test [1] stood at 16.5 nM; in the test on Splenocytes it was 3.1 nM.
On human BTK kinase (hBTK), `Cc1ncc(COc2cc(F)cc(Oc3ccc(-c4nn(C[C@H]5CCCN5C(=O)C5=CCCC5)c5ncnc(N)c45)cc3)c2)cn1` [Compound 2] had an IC50 of 119 nM. The EC50 (in test [1]; in the test with Splenocytes) was greater than 100 nM throughout.
Compound `C=C(C)C(=O)N1CCC[C@@H]1Cn1nc(-c2ccc(Oc3cc(F)cc(OCc4cnc(C)nc4)c3)cc2)c2c(N)ncnc21` [Compound 4] showed an IC50 against human BTK kinase (hBTK) of 125 nM. Further, the EC50 (in test [1]; in the test on Splenocytes) was greater than 100 nM throughout.
As for `C=CC(=O)N[C@H]1C[C@@H](n2nc(-c3ccc(Oc4cc(F)cc(OCc5cnc(C)nc5)c4)cc3)c3c(N)ncnc32)C1` [Compound 27], half-maximal inhibition at human BTK kinase (hBTK) (IC50) required 8 nM. Besides, the “Residence time half life (1/Kobs)” value on BTK was greater than 10 h. In addition, at BTK (read-out: Residence time half life (1/Kobs)), the residence time is greater than 600 min. Besides, the EC50 was 4.7 nM in test [1] and 0.8 nM in the test on Splenocytes.
Regarding `C/C=C/C(=O)N1CCC[C@@H]1Cn1nc(-c2ccc(Oc3cc(F)cc(OCc4cnc(C)nc4)c3)cc2)c2c(N)ncnc21` [Compound 3], the 50% inhibitory concentration (IC50) on human BTK kinase (hBTK) worked out at 129 nM. Besides, the results for the EC50 (in test [1]; in the test on Splenocytes) were 45.3 nM and 12.8 nM, respectively.
`C=CC(=O)N[C@H]1CC[C@@H](n2nc(-c3ccc(Oc4cc(F)cc(OCc5cnc(C)nc5)c4)cc3)c3c(N)ncnc32)CC1` [Compound 29]: on human BTK kinase (hBTK), the midpoint of inhibition, the IC50, lay at 8 nM. Further, the figures for the EC50 (in test [1]; in the test on Splenocytes) were 6.6 nM and 1 nM, respectively.
